Measured values: US8129355B2, “Ketone ligands for modulating the expression of exogenous genes via an ecdysone receptor complex” (priority 2002, dated 2012)
pEC50: −log10 of the molar value. Where two headings read alike, the source gives them in different places.

Experiments:
[1] = molecular target: T1, Bombyx mori EcR (VP16 fusion, switch construct CVBE) with 6XEcRE LacZ reporter (Bombyx mori, UniProt P49881); test: Z3 assay: β-galactosidase (LacZ) reporter gene fold induction in stably transformed human 293 kidney cells (clone Z3); format: cell-based; conditions: for Fold Induction Average, Z3 Assay (33 μM): single dose 33 μM, ligand treated / DMSO treated cells; for CC50: average, dose response, three-parameter logistic model, read-out: Z3 LC50; for Z3 Rel Max FI: maximum fold induction at any concentration relative to that of GS-E ligand
T1 construct: expressed in transfected cells; host or cells: Human 293 kidney (HEK-293) cells, retrovirally infected, clone Z3
T1 sequence (P49881 86-606 limits assumed): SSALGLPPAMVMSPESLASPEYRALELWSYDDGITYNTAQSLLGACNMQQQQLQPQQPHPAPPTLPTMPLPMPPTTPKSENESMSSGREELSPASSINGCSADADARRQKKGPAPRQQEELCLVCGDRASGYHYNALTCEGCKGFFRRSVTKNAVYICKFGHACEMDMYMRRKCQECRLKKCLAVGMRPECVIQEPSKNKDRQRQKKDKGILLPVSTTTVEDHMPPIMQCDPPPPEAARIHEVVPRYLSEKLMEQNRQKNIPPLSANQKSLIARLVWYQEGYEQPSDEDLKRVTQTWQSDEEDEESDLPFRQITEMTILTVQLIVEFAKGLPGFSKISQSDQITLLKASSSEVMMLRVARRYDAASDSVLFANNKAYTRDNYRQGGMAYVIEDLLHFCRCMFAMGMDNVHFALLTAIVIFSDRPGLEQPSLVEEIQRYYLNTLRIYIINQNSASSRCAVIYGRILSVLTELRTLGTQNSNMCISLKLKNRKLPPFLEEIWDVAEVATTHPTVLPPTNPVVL
T1 sequence (P19793 1-462 partner): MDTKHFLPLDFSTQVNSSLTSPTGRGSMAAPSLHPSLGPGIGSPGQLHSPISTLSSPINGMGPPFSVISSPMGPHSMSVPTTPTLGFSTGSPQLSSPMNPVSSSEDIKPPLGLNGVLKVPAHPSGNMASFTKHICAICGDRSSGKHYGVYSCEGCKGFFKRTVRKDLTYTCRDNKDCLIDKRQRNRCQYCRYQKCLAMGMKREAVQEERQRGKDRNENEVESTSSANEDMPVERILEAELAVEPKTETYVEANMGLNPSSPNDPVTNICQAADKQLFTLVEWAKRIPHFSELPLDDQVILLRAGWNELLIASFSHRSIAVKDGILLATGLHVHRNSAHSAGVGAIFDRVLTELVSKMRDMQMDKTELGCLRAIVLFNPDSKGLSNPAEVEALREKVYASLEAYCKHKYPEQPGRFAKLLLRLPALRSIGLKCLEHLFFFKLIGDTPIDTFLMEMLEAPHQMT
Text: Dr. F. Gage provided a population of stably transformed cells containing CVBE and 6XEcRE as described in Suhr, S. T., Gil, E. B., Senut M. C., Gage, F. H. (1998) Proc. Natl. Acad. Sci. USA 95, 7999-804. Human 293 kidney cells, also referred to as HEK-293 cells, were sequentially infected with retroviral vectors encoding first the switch construct CVBE, and subsequently the reporter construct 6XEcRE Lac Z. The switch construct contained the coding sequence for amino acids 26-546 from Bombyx mori EcR (BE) (Iatrou) inserted in frame and downstream of the VP16 transactivation domain (VBE). A synthetic ATG start codon was placed under the control of cytomegalovirus (CVBE) immediate early promoter and flanked by long terminal repeats (LTR). The reporter construct contained six copies of the ecdysone response element (EcRE) binding site placed upstream of LacZ and flanked on both sides with LTR sequences (6XEcRE).
Dilution cloning was used to isolate individual clones. Clones were selected using 450 ug/mL G418 and 100 ng/mL puromycin. Individual clones were evaluated based on their response in the presence and absence of test ligands. Clone Z3 was selected for screening and SAR purposes.
Human 293 kidney cells stably transformed with CVBE and 6XEcRE lack were maintained in Minimum Essential Medium (Mediates, 10-010-CV) containing 10% FBS (Life Technologies, 26140-087), […] G418 (Mediates, 30-234-CR), and […] (Sigma, P-7255), at 37° C. in an atmosphere containing 5% CO2 and were subculture when they reached 75% confluence.
Z3 cells were seeded into 96-well tissue culture plates at a concentration of 2.5×10^3 cells per well and incubated at 37° C. in 5% CO2 for twenty-four hours. Stock solutions of ligands were prepared in DMSO. Ligand stock solutions were diluted 100 fold in media and 50 μL of this diluted ligand solution (33 μM) was added to cells. The final concentration of DMSO was maintained at […] in both controls and treatments.
Reporter gene expression was evaluated 48 hours after treatment of cells, β-galactosidase activity was measured using Gal Screen™ bioluminescent reporter gene assay system from Tropix (GSY1000).
Flanking both constructs are long terminal repeats, G418 and puromycin are selectable markers, CMV is the cytomegalovirus promoter, VBE is coding sequence for amino acids 26-546 from Bombyx mori EcR inserted downstream of the VP16 transactivation domain, 6×EcRE is six copies of the ecdysone response element, lacZ encodes for the reporter enzyme β-galactosidase. Suhr, S. T., Gil, E. B., Senut M. C., Gage, F. H. (1998) Proc. Natl. Acad. Sci. USA 95, 7999-804. Swevers, L., Drevet, J. R., Lunke, M. D., Iatrou, K. (1995) Insect Biochem. Mol. Biol. 25, 857-866.

[2] = molecular target: T2, GAL4 DBD-CfEcR(DEF)/VP16AD-MmRXRE (Choristoneura fumiferana, UniProt O77240); test: cell-based; conditions: for 13B3 Rel Max FI: maximum fold induction at any concentration relative to that of GS-E ligand
T2 sequence (O77240 1-513): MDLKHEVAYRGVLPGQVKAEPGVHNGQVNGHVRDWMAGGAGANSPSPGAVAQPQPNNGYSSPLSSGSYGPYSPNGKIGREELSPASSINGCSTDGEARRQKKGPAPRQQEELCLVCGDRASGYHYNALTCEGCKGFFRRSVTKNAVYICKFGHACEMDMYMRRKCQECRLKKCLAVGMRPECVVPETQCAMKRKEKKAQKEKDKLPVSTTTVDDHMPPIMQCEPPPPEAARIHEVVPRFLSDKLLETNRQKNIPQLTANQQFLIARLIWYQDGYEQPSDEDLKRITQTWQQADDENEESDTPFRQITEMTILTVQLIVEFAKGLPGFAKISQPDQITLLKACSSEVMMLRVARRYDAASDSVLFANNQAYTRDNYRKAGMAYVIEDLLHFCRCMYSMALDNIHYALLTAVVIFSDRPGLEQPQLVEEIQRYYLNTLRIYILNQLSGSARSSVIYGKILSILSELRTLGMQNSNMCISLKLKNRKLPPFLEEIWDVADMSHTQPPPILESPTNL
Text: GAL4 DBD-CfEcR(DEF)/VP16AD-MmRXRE: The wild-type D, E, and F domains from spruce budworm Choristoneura fumiferana EcR (“CfEcR-DEF”; SEQ ID NO: 1) were fused to a GAL4 DNA binding domain (“Gal4 DBD1-147”; nucleotides 31 to 471 of SEQ ID NO: 2) and placed under the control of the SV40e promoter of pM vector (PT3119-5, Clontech, Palo Alto, Calif.). The D and E domains from Mus Musculus RXR (“MmRXR-DE”; SEQ ID NO: 10) were fused to the transactivation domain from VP16 (“VP16AD”; SEQ ID NO: 5) and placed under the control of the SV40e promoter of the pVP16 vector (PT3127-5, Clontech, Palo Alto, Calif.).
CHO cells were transienty transfected with transcription cassettes for GAL4 DBD-CfEcR(DEF) and for VP16AD-MmRXRE controlled by SV40e promoters. Stably transfected cells were selected using Hygromycin. Individually isolated CHO cell clones were transiently transfected with a GAL4 RE-luciferase reporter (pMR-Luc, Stratagene, La Jolla, Calif.). The 13B3 clone was selected using Zeocin.
Cells were trypsinized and diluted to a concentration of 2.5×10^4 cells mL. 100 μL of cell suspension was placed in each well of a 96 well plate and incubated at 37° C. under 5% CO2 for 24 h. Ligand stock solutions were prepared in DMSO and diluted 300 fold for all treatments. Dose response testing consisted of 8 concentrations ranging from 33 μM to 0.01 μM.
Luciferase reporter gene expression was measured 48 h after cell treatment using Bright-Glo™ Luciferase Assay System from Promega (E2650). Luminescence was detected at room temperature using a Dynex MLX microtiter plate luminometer.
Fold inductions were calculated from single dose testing by dividing relative light units (RLU) in ligand treated cells by RLU in DMSO treated cells. BC50s were calculated from dose response data using a three-parameter logistic model.

Structure (SMILES)	Fold Induction Average, Z3 Assay (33 μM) [1]	Fold Induction Average, 13B3 Assay (33 μM) [2]	further results
CC(=O)NC(C(=O)c1ccccc1)c1ccccc1 (centres unmarked) [Example 94]	1	1	
Cc1cccc(C(=O)NC(C(=O)c2ccccc2)C(C)(C)C)c1C (centres unmarked) [Example 97]	1	0	
COc1cccc(C(=O)NC2(C(=O)c3ccc(C)cc3)CC2)c1C [Example 24]	11	87	
CCc1ccc(C(=O)NC2(C(=O)c3ccccc3)CCCC2)cc1 [Example 3]			pEC50 [2]: < 4.48; 13B3 Rel Max FI [2]: 0.00
CCc1ccc(C(=O)NC(C)(C)C(=O)c2ccccc2)cc1 [Example 108]	2	1	
Cc1ccc(C(=O)NC(C(=O)c2ccccc2)C(C)(C)C)cc1 (centres unmarked) [Example 96]	1	0	
COc1cccc(C(=O)NC(C)(C(C)=O)C(C)C)c1C (centres unmarked) [Example 112]	1	2	
Cc1c(C(=O)NC2(C(=O)c3ccccc3)CCCC2)ccc2c1OCO2 [Example 23]	32	2	
CC(C)(C)C(NC(=O)c1ccc([N+](=O)[O-])cc1)C(=O)c1ccccc1 (centres unmarked) [Example 98]	1	0	
COc1ccc(C(=O)C(C)(CC(C)C)NC(=O)c2cccc(OC)c2C)cc1 (centres unmarked) [Example 118]	1	0	
Cc1nc2ncc(C(=O)NC3(C(=O)c4ccccc4)CCCC3)c(C)n2n1 [Example 103]		0	
COc1ccccc1C(=O)NC(C)(C)C(=O)c1cc(C)cc(C)c1 [Example 119]	1	0	
COc1cccc(C(=O)NC2(C(=O)c3ccccc3)CCCC2)c1C [Example 1]	71		CC50 [1]: 2670 nM; Z3 Rel Max FI [1]: 0.14; 13B3 Rel Max FI [2]: 0.00; pEC50 ([2]; read-out: 13B3 EC50, average, dose response, three-parameter logistic model): < 4.48; Fold Induction Average, 13B3 Assay (33 μM) ([2]; single dose 33 μM, RLU ligand treated / RLU DMSO treated cells): 3
COc1cccc(C(=O)NC(C)(CC(C)C)C(=O)c2ccc(F)c(C)c2)c1C (centres unmarked) [Example 54]	41	0	
COc1cccc(C(=O)NC2(C(=O)c3cccc(C)c3)CCN(C(=O)OC(C)(C)C)CC2)c1C [Example 109]	3	0	
COc1cccc(C(=O)NC(C)(Cc2ccccc2)C(=O)c2cccc(C)c2)c1C (centres unmarked) [Example 8]	15	2	
COc1cccc(C(=O)NC2(C(=O)c3cc(C)cc(C)c3)CCN(C(=O)OC(C)(C)C)CC2)c1C [Example 110]	1	2	
COc1cccc(C(=O)NC2(C(=O)c3ccccc3C)CCCC2)c1C [Example 39]	30	24	
COc1cccc(C(=O)C2(NC(=O)c3cccc(OC)c3C)CC2)c1 [Example 99]	1	0	
COc1cccc(C(=O)NC(C(=O)c2cccc(C)c2)(c2ccccc2)C(C)C)c1C (centres unmarked) [Example 57]	8	0	
COc1cccc(C(=O)NC2(C(=O)c3cccc(C)c3)CC2)c1C [Example 9]	12	0	
CC(C)(NC(=O)c1ccc2c(c1)OCO2)C(=O)c1ccccc1 [Example 106]	1	3	
COc1cccc(C(=O)NC(C)(C(=O)c2ccc3c(c2)OCO3)C(C)C)c1C (centres unmarked) [Example 111]	1	0	
CCc1ccc(C(=O)NC2(C(=O)c3cc(C)cc(C)c3)CCCCC2)cc1 [Example 175]			CC50 [1]: 1510 nM; Z3 Rel Max FI [1]: 0.63
COc1cccc(C(=O)C2(NC(=O)c3cccc(OC)c3C)CCCC2)c1 [Example 5]			pEC50 [2]: < 4.48; 13B3 Rel Max FI [2]: 0.02
